Tests used:
winter wheat [1] = assay: Test E winter wheat; assay type: in vivo, Triticum aestivum; details: Preemergence; for Wheat (winter) plant response rating (0 to 100 scale): Rate 250 g/ha
winter barley = assay: Test E winter barley; assay type: in vivo, Hordeum vulgare; details: Preemergence; for Barley (winter) plant response rating (0 to 100 scale): Rate 250 g/ha
wild oat = assay: Test E wild oat; assay type: in vivo, Avena fatua; details: Preemergence; for Wild oat plant response rating (0 to 100 scale): Rate 250 g/ha
winter wheat [2] = assay: Test E winter wheat; assay type: in vivo, Triticum aestivum; details: Postemergence; for Wheat (winter) plant response rating: Rate 250 g/ha
Summary of the method: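 For postemergence, sowings are timed so plants reach the 1- to 4-leaf stage at spraying. Test compound is applied in a surfactant-containing solvent mixture that is non-phytotoxic. Response is judged by eye against untreated controls after approximately 21 to 28 days.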

morningglory = assay: Test B pre/postemergence morningglory; assay type: in vivo, Ipomoea hederacea; details: for Morningglory plant response rating (0 to 10 scale): 0 is no effect
Summary of the method: (§1)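 Herbicidal effect was estimated by eye on a ten-point control scale after plants spent twelve to sixteen days in a greenhouse following soil or foliar treatment. Foliar sprays targeted plants at one to four leaves; all doses were formulated in a non-phytotoxic solvent with surfactant.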

blackgrass [3] = assay: Test B pre/postemergence blackgrass; assay type: in vivo, Alopecurus myosuroides; details: for Blackgrass plant response rating (0 to 10 scale): 0 is no effect
Summary of the method: as §1

Italian ryegrass = assay: Test E Italian ryegrass; assay type: in vivo, Lolium multiflorum; details: Preemergence; for I. Ryegrass plant response rating (0 to 100 scale): Rate 250 g/ha
bamyardgrass = assay: Test B flood test barnyardgrass; assay type: in vivo, Echinochloa crus-galli
Summary of the method: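 Plants were grown to the 2-leaf stage before treatment with test chemical, then held in a greenhouse for twelve to sixteen days. Injury was visually rated against untreated controls on a 0–10 scale, where 0 is no effect and 10 is complete control.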

crabgrass = assay: Test B pre/postemergence crabgrass; assay type: in vivo, Digitaria sanguinalis; details: for Crabgrass plant response rating (0 to 10 scale): 0 is no effect
Summary of the method: as §1

blackgrass [4] = assay: Test E blackgrass; assay type: in vivo, Alopecurus myosuroides; details: Preemergence; for Blackgrass plant response rating (0 to 100 scale): Rate 250 g/ha
green foxtail = assay: Test E green foxtail; assay type: in vivo, Setaria viridis; details: Preemergence; for Green foxtail plant response rating (0 to 100 scale): Rate 250 g/ha
[5] = Rate 62 g/ha, 0 to 100 scale, 0 no effect, 100 complete control
[6] = Rate 125 g/ha, 0 to 100 scale (0 no effect, 100 complete control)
[7] = 0 to 100 scale where 0 is no effect and 100 is complete control
[8] = Postemergence, Rate 125 g/ha, scale of 0 to 10 where 0 is no effect and 10 is complete control
[9] = Preemergence, Rate 62 g/ha, scale 0 to 10 (0 no effect, 10 complete control)
[10] = Preemergence, Rate 125 g/ha, 10 is complete control
[11] = Preemergence, Rate 250 g/ha, scale 0 to 10, 0 is no effect, 10 is complete control
[12] = Preemergence, Rate 500 g/ha, scale 0 to 10 (0 no effect, 10 complete control)
[13] = Rate 62 g/ha, Postemergence, scale of 0 to 10 where 0 is no effect and 10 is complete control
[14] = Rate 250 g/ha, Postemergence, scale 0 to 10, 0 is no effect, 10 is complete control
[15] = Rate 500 g/ha, Postemergence, scale 0 to 10
[16] = Rate 1000 g/ha, 0 to 100 scale where 0 is no effect and 100 is complete control
[17] = Preemergence, Rate 62 g/ha, scale of 0 to 10 where 0 is no effect and 10 is complete control
[18] = Preemergence, Rate 500 g/ha, scale of 0 to 10 where 0 is no effect and 10 is complete control
[19] = Rate 125 g/ha, Postemergence, scale 0 to 10
[20] = Rate 62 g/ha, headed Pre-emergence (flood test species), scale 0 to 10 (0 no effect, 10 complete control)
[21] = Rate 125 g/ha, Pre-emergence, flood test species, scale 0 to 10 where 0 is no effect and 10 is complete control
[22] = Rate 250 g/ha, Pre-emergence, flood-test species, scale 0 to 10, 0 is no effect, 10 is complete control
[23] = Rate 500 g/ha, 0 to 100 scale where 0 is no effect and 100 is complete control
[24] = Rate 1000 g/ha, 0 to 100 scale, 0 no effect, 100 complete control
[25] = Preemergence, Rate 250 g/ha, scale of 0 to 10 where 0 is no effect and 10 is complete control
[26] = Rate 125 g/ha, Postemergence, scale of 0 to 10 where 0 is no effect and 10 is complete control
[27] = Rate 125 g/ha, Preemergence, scale of 0 to 10 where 0 is no effect and 10 is complete control
[28] = Rate 250 g/ha, Postemergence, scale of 0 to 10 where 0 is no effect and 10 is complete control
[29] = Rate 500 g/ha, Postemergence, scale 0 to 10, 0 no effect, 10 complete control

## CC(C)N(C(=O)n1oc(=O)n(CCCl)c1=O)c1ccc(F)cc1 [Compound 148]
Winter wheat [1]; [5]
  Plant response rating, Wheat (winter): 0
Winter wheat [1]; [6]
  Plant response rating, Wheat (winter): 0
Winter wheat [1]
  Wheat (winter) plant response rating (0 to 100 scale): 0
Winter barley; [5]
  Plant response rating, Barley (winter): 10
Winter barley; [6]
  Plant response rating, Barley (winter): 10
Winter barley
  Barley (winter) plant response rating (0 to 100 scale): 10
Wild oat; [5]
  Plant response rating, Wild oat: 10
Wild oat; [6]
  Plant response rating, Wild oat: 15
Wild oat
  Wild oat plant response rating (0 to 100 scale): 40
Winter wheat [2]; Rate 62 g/ha, 0 to 100 scale
  Plant response rating, Wheat (winter): 0
Winter wheat [2]; Rate 125 g/ha, 0 to 100 scale
  Plant response rating, Wheat (winter): 10
Winter wheat [2]; [7]
  Wheat (winter) plant response rating: 80
morningglory; [8]
  Morningglory plant response rating: 3
morningglory; [9]
  Morningglory plant response rating: 0
morningglory; [10]
  Morningglory plant response rating (0 to 10 scale): 0
morningglory; [11]
  Morningglory plant response rating: 0
morningglory; [12]
  Morningglory plant response rating: 1
morningglory; [13]
  Morningglory plant response rating: 3
morningglory; [14]
  Plant response rating, Morningglory: 3
morningglory; [15]
  Morningglory plant response rating: 5
Blackgrass [3]; [8]
  Blackgrass plant response rating: 7
Blackgrass [3]; [9]
  Blackgrass plant response rating: 4
Blackgrass [3]; [10]
  Blackgrass plant response rating (0 to 10 scale): 4
Blackgrass [3]; [11]
  Blackgrass plant response rating: 7
Blackgrass [3]; [12]
  Blackgrass plant response rating: 9
Blackgrass [3]; [13]
  Blackgrass plant response rating: 5
Blackgrass [3]; [14]
  Plant response rating, Blackgrass: 7
Blackgrass [3]; [15]
  Blackgrass plant response rating: 7
Italian ryegrass; [5]
  Plant response rating, I. Ryegrass: 20
Italian ryegrass; [6]
  Plant response rating, I. Ryegrass: 20
Italian ryegrass
  I. Ryegrass plant response rating (0 to 100 scale): 30
bamyardgrass; Postemergence (flood test species), Rate 125 g/ha, scale of 0 to 10 where 0 is no effect and 10 is complete control
  Barnyardgrass plant response rating: 0
bamyardgrass; Rate 62 g/ha, Postemergence section, flood test species, scale of 0 to 10 where 0 is no effect and 10 is complete control
  Barnyardgrass plant response rating: 0
bamyardgrass; Rate 250 g/ha, Postemergence (flood test), scale 0 to 10, 0 is no effect, 10 is complete control
  Plant response rating, Barnyardgrass: 0
bamyardgrass; Rate 500 g/ha, listed under Postemergence (flood test species), scale 0 to 10, 0 no effect, 10 complete control
  Barnyardgrass plant response rating: 4
crabgrass; [8]
  Crabgrass plant response rating: 8
crabgrass; [9]
  Crabgrass plant response rating: 5
crabgrass; [10]
  Crabgrass plant response rating (0 to 10 scale): 8
crabgrass; [11]
  Crabgrass plant response rating: 9
crabgrass; [12]
  Crabgrass plant response rating: 9
crabgrass; [13]
  Crabgrass plant response rating: 8
crabgrass; [14]
  Plant response rating, Crabgrass: 8
crabgrass; [15]
  Crabgrass plant response rating: 9
Blackgrass [4]; [5]
  Plant response rating, Blackgrass: 20
Blackgrass [4]; [6]
  Plant response rating, Blackgrass: 50
Blackgrass [4]
  Blackgrass plant response rating (0 to 100 scale): 50
Green foxtail; [5]
  Plant response rating, Green foxtail: 20
Green foxtail; [6]
  Plant response rating, Green foxtail: 30
Green foxtail
  Green foxtail plant response rating (0 to 100 scale): 55

## Cc1ccccc1-n1c(=O)on(C(=O)N(c2ccccc2F)C(C)C)c1=O [Compound 204]
Winter wheat [1]
  Wheat (winter) plant response rating (0 to 100 scale): 30
Winter wheat [1]; [16]
  Plant response rating, Wheat (winter): 50
Winter barley
  Barley (winter) plant response rating (0 to 100 scale): 50
Winter barley; [16]
  Plant response rating, Barley (winter): 30
Wild oat
  Wild oat plant response rating (0 to 100 scale): 50
Wild oat; [16]
  Plant response rating, Wild oat: 50
Winter wheat [2]; Rate 1000 g/ha, 0 to 100 scale, 0 is no effect and 100 is complete control
  Plant response rating, Wheat (winter): 30
morningglory; [17]
  Morningglory plant response rating: 0
morningglory; [10]
  Morningglory plant response rating (0 to 10 scale): 0
morningglory; [11]
  Morningglory plant response rating: 0
morningglory; [18]
  Plant response rating, Morningglory: 0
morningglory; [13]
  Morningglory plant response rating: 3
morningglory; [19]
  Morningglory plant response rating: 3
morningglory; Rate 250 g/ha, Postemergence
  Plant response rating (0 to 10; 0 is no effect, 10 is complete control), Morningglory: 3
morningglory; [15]
  Morningglory plant response rating: 8
Blackgrass [3]; [17]
  Blackgrass plant response rating: 0
Blackgrass [3]; [10]
  Blackgrass plant response rating (0 to 10 scale): 2
Blackgrass [3]; [11]
  Blackgrass plant response rating: 2
Blackgrass [3]; [18]
  Plant response rating, Blackgrass: 5
Blackgrass [3]; [13]
  Blackgrass plant response rating: 0
Blackgrass [3]; [19]
  Blackgrass plant response rating: 2
Blackgrass [3]; Rate 250 g/ha, Postemergence
  Plant response rating (0 to 10; 0 is no effect, 10 is complete control), Blackgrass: 3
Blackgrass [3]; [15]
  Blackgrass plant response rating: 7
Italian ryegrass
  I. Ryegrass plant response rating (0 to 100 scale): 50
Italian ryegrass; [16]
  Plant response rating, I. Ryegrass: 65
bamyardgrass; [20]
  Barnyardgrass plant response rating: 0
bamyardgrass; [21]
  Barnyardgrass plant response rating: 0
bamyardgrass; [22]
  Barnyardgrass plant response rating: 0
bamyardgrass; Rate 500 g/ha, headed Pre-emergence (flood test species), scale 0 to 10 (0 no effect, 10 complete control)
  Plant response rating, Barnyardgrass: 0
crabgrass; [17]
  Crabgrass plant response rating: 6
crabgrass; [10]
  Crabgrass plant response rating (0 to 10 scale): 8
crabgrass; [11]
  Crabgrass plant response rating: 8
crabgrass; [18]
  Plant response rating, Crabgrass: 8
crabgrass; [13]
  Crabgrass plant response rating: 0
crabgrass; [19]
  Crabgrass plant response rating: 0
crabgrass; Rate 250 g/ha, Postemergence
  Plant response rating (0 to 10; 0 is no effect, 10 is complete control), Crabgrass: 2
crabgrass; [15]
  Crabgrass plant response rating: 5
Blackgrass [4]
  Blackgrass plant response rating (0 to 100 scale): 55
Blackgrass [4]; [16]
  Plant response rating, Blackgrass: 95
Green foxtail
  Green foxtail plant response rating (0 to 100 scale): 75
Green foxtail; [16]
  Plant response rating, Green foxtail: 100

## Cc1ccccc1-n1c(=O)on(C(=O)N(c2cccc(F)c2)C(C)C)c1=O [Compound 269]
Winter wheat [1]
  Wheat (winter) plant response rating (0 to 100 scale): 60
Winter wheat [1]; [23]
  Plant response rating, Wheat (winter): 40
Winter wheat [1]; [24]
  Plant response rating, Wheat (winter): 50
Winter barley
  Barley (winter) plant response rating (0 to 100 scale): 30
Winter barley; [23]
  Plant response rating, Barley (winter): 50
Winter barley; [24]
  Plant response rating, Barley (winter): 60
Wild oat
  Wild oat plant response rating (0 to 100 scale): 70
Wild oat; [23]
  Plant response rating, Wild oat: 70
Wild oat; [24]
  Plant response rating, Wild oat: 70
Winter wheat [2]; [16]
  Plant response rating, Wheat (winter): 55
Winter wheat [2]; [7]
  Wheat (winter) plant response rating: 50
Winter wheat [2]; Rate 500 g/ha, 0 to 100 scale, 0 is no effect, 100 is complete control
  Plant response rating, Wheat (winter): 40
morningglory; [17]
  Morningglory plant response rating: 0
morningglory; [25]
  Morningglory plant response rating: 0
morningglory; [18]
  Plant response rating, Morningglory: 0
morningglory; [26]
  Morningglory plant response rating: 3
morningglory; [27]
  Morningglory plant response rating: 0
morningglory; [28]
  Plant response rating, Morningglory: 5
morningglory; [29]
  Morningglory plant response rating: 7
Blackgrass [3]; [17]
  Blackgrass plant response rating: 0
Blackgrass [3]; [25]
  Blackgrass plant response rating: 3
Blackgrass [3]; [18]
  Plant response rating, Blackgrass: 7
Blackgrass [3]; [13]
  Blackgrass plant response rating: 0
Blackgrass [3]; [26]
  Blackgrass plant response rating: 0
Blackgrass [3]; [27]
  Blackgrass plant response rating: 2
Blackgrass [3]; [28]
  Plant response rating, Blackgrass: 2
Blackgrass [3]; [29]
  Blackgrass plant response rating: 5
Italian ryegrass
  I. Ryegrass plant response rating (0 to 100 scale): 50
Italian ryegrass; [23]
  Plant response rating, I. Ryegrass: 60
Italian ryegrass; [24]
  Plant response rating, I. Ryegrass: 70
bamyardgrass; [20]
  Barnyardgrass plant response rating: 0
bamyardgrass; [21]
  Barnyardgrass plant response rating: 0
bamyardgrass; [22]
  Barnyardgrass plant response rating: 0
bamyardgrass; Rate 500 g/ha, Pre-emergence, flood test species, scale 0 to 10 (0 no effect, 10 complete control)
  Barnyardgrass plant response rating: 0
crabgrass; [17]
  Crabgrass plant response rating: 0
crabgrass; [25]
  Crabgrass plant response rating: 3
crabgrass; [18]
  Plant response rating, Crabgrass: 6
crabgrass; [26]
  Crabgrass plant response rating: 0
crabgrass; [27]
  Crabgrass plant response rating: 2
crabgrass; [28]
  Plant response rating, Crabgrass: 0
crabgrass; [29]
  Crabgrass plant response rating: 1
Blackgrass [4]
  Blackgrass plant response rating (0 to 100 scale): 40
Blackgrass [4]; [23]
  Plant response rating, Blackgrass: 30
Blackgrass [4]; [24]
  Plant response rating, Blackgrass: 40
Green foxtail
  Green foxtail plant response rating (0 to 100 scale): 60
Green foxtail; [23]
  Plant response rating, Green foxtail: 70
Green foxtail; [24]
  Plant response rating, Green foxtail: 100

— patent US6737383B1, “Herbicidal oxadiazolidines” (priority 1999, dated 2004)
